{"source": "a melting point compilation (Tetko et al.; mined from patent text by program, amines drawn as free bases though some values may be those of a salt)", "note": "Residues, ends and D or L forms follow the SMILES beside them."}
{"units": {"melting point": "°C"}}
{"smiles": "CC12CC(N3CCC4(CC3)OCCO4)C(O)CC1CCC1C2CCC2(C)C(O)C(N3CCCCC3)CC12", "note": "(centres undefined)", "melting point": "216 to 218"}
{"smiles": "COc1cc(N)c(Cl)cc1C(=O)NCC1CCN(CCCCC(=O)c2ccccc2)CC1", "melting point": "100 to 102"}
{"smiles": "CCCCCOc1cc(-n2c(=O)cc(C(F)(F)F)n(C)c2=O)c(F)cc1Cl", "melting point": "64 to 66"}
{"smiles": "COCOCCCOn1cnc2cnc(N)nc21", "melting point": "80 to 81"}
{"smiles": "Cc1ccc2c(c1)[nH]c(=O)n2CCCN1CCC(C(=O)c2ccc(F)cc2)CC1", "melting point": 149}
{"smiles": "CN(C)CCc1c[nH]c2ccc(CCC(=O)NCc3ccc(NS(C)(=O)=O)cc3)cc12", "melting point": "78 to 82"}
{"smiles": "CCCCc1ncc(/C=C(\\Cc2cccs2)C(=O)O)n1Cc1cc(Cl)c(C(=O)O)cc1Cl", "melting point": 145}
{"smiles": "CCOC(=O)c1cc(=O)c2c(OCCn3c(=O)sc4ccc(Cl)cc43)cccc2o1", "melting point": "177 to 178"}
{"smiles": "CCOC(=O)c1[nH]cc(-c2ccc(F)cc2)c1-c1ccc(F)cc1", "melting point": "157 to 159"}
{"smiles": "CCCCNc1c(C(=O)OCC)c(C)nc2nnsc12", "melting point": "57 to 58"}
{"smiles": "NS(=O)(=O)c1ccc(-c2cc3c(cc2-c2ccc(F)cc2)OCO3)cc1", "melting point": "191 to 192"}
{"smiles": "COc1ccc(CCc2oc3ccc(Br)cc3c2C(C)=O)cc1", "melting point": "100 to 101"}
{"smiles": "O=C(Nc1ccc(-n2nc(C(F)(F)F)cc2C(F)(F)F)cc1)c1ccc2c(c1)OCO2", "melting point": "222 to 224"}
{"smiles": "COCn1ccnc1C(O)(c1ccc(Cl)cc1)c1ccc(C(C)(C)C)cc1", "note": "(centres undefined)", "melting point": "162 to 163"}
{"smiles": "CN1CCN(c2nn(S(=O)(=O)c3ccccc3)c3cc(Cl)ccc23)CC1", "melting point": "139 to 141"}
{"smiles": "O=[N+]([O-])c1cc(Cl)c(Oc2cc(Cl)c(Br)cc2Cl)cc1NCc1ccccc1", "melting point": 157}
{"smiles": "COc1cc2c(cc1Cl)C(=O)CC(C)O2", "note": "(centres undefined)", "melting point": "96 to 100"}
{"smiles": "COc1cc([N+](=O)[O-])ccc1S(=O)(=O)Nc1ccc(C)cc1", "melting point": "126 to 129"}
{"smiles": "CN(C)CC1CCc2cc(OC(=O)c3ccc(-c4ccccc4)cc3)ccc2C1", "note": "(centres undefined)", "melting point": "85 to 86"}
{"smiles": "O=C(CCc1ccccc1[N+](=O)[O-])c1c(O)c2cccnc2n(-c2ccccc2)c1=O", "melting point": "238 to 240"}
{"smiles": "Cc1ccc(-c2cnc(-c3ccc(C(F)(F)F)cc3)s2)s1", "melting point": "150 to 152"}
{"smiles": "Oc1ccc(C2(c3ccc(O)cc3)CCCCC2)cc1", "melting point": "181 to 182"}
{"smiles": "COCCNCCc1ccc(Nc2ncc3c(n2)-c2ccccc2C(c2ccccc2C(F)(F)F)C3)cc1", "note": "(centres undefined)", "melting point": "61 to 62"}
{"smiles": "CN(C)S(=O)(=O)n1cnc(S(=O)(=O)NCc2ccc(Cl)cc2)c1", "melting point": "171 to 173"}
{"smiles": "Cc1nc2ccc(Sc3cccc4cnccc34)cc2o1", "melting point": "140 to 142"}
{"smiles": "Nc1nccnc1C(=O)NCCN1CCC(Nc2nc3ccccc3n2Cc2ccc(F)cc2)CC1", "melting point": 157}
{"smiles": "CC(C)(C)OC(=O)N1CCCC1C(=O)Nc1ccc(-n2nc(C(F)(F)F)cc2C(F)(F)F)cc1", "note": "(centres undefined)", "melting point": "70 to 72"}
{"smiles": "CC(=O)NC(C)C(=O)NC(C)C(=O)NC(CC(C)C)C(=O)O", "note": "(stereo not drawn) (Ac-Ala-Ala-Leu-OH; configuration not given here)", "melting point": "185 to 186"}
{"smiles": "Cc1nc2ccccn2c(=O)c1CC1CCCCC1", "melting point": "112 to 114"}
{"smiles": "CCc1cc2c(s1)-n1c(nnc1CNC(=O)c1cc3ccccc3n1CC(=O)O)CN=C2c1ccccc1Cl", "melting point": "222 to 223"}
{"smiles": "COC(=O)CCCc1cc2cc(Cl)ccc2n1S(=O)(=O)c1cccc2nsnc12", "melting point": "123 to 126"}
{"smiles": "CC(C)(C)C(O)C(=O)CCn1cncn1", "note": "(centres undefined)", "melting point": "80 to 83"}
{"smiles": "Cc1ccc(-c2ncc3c(n2)CCCC3)nc1Br", "melting point": "125 to 128"}
{"smiles": "CCOCN1N=NC(=S)C1C", "note": "(centres undefined)", "melting point": "137 to 138"}
{"smiles": "O=C(CCCCN1CCCCC1)c1ccc2c(c1)Sc1cc(C(=O)CCCCN3CCCCC3)ccc1O2", "melting point": "128 to 130"}
{"smiles": "CC1(C)CCC(C)(C)c2cc(CO)ccc21", "melting point": "74 to 75"}
{"smiles": "Nc1c(F)cc(Cl)c2nc(Cl)sc12", "melting point": 173}
{"smiles": "Cc1cc(Oc2c(Cl)cc(C(F)(F)F)cc2Cl)nn1C(=O)NCc1ccccc1", "melting point": "50 to 53"}
{"smiles": "O=C(Nc1ccccc1)c1ccc(C(=O)Nc2nnc(-c3cc(Cl)cc(Cl)c3O)s2)cc1", "melting point": 342}
{"smiles": "CCC[C@H]1CC[C@H](C(=O)O)CC1", "melting point": "97 to 98"}
{"smiles": "CN1CCOC1=C(C#N)C=C1Nc2ccccc2C1=O", "melting point": "222 to 226"}
{"smiles": "O=C1NCc2c(Oc3ccccc3)cccc2N1Cc1ccccc1", "melting point": "171 to 173"}
{"smiles": "CSc1nc(C#N)c(I)c(C(F)(F)F)n1", "melting point": "68 to 69"}
{"smiles": "COC(=O)CC(O)CP(=O)(C#Cc1c(C(C)C)c2n(c1-c1ccc(F)cc1)CCCC2)OC", "note": "(centres undefined)", "melting point": "100 to 101"}
{"smiles": "Cc1cc(C=O)ccc1C(=O)NCC(F)(F)F", "melting point": "99 to 104"}
{"smiles": "CCCC(C)c1nn(-c2ccc(C(F)(F)F)cn2)cc1C=O", "note": "(centres undefined)", "melting point": "63 to 64"}
{"smiles": "CC1(C)COc2cc(C(F)(F)F)ccc2C(O)(c2ccccn2)C1", "note": "(centres undefined)", "melting point": 78}
{"smiles": "COC(=O)C(C(=O)OC)c1ccc(Br)cc1[N+](=O)[O-]", "melting point": "86 to 88"}
{"smiles": "N#Cc1nn(-c2c(Cl)cc(C(F)(F)F)cc2Cl)c(-n2cccn2)c1S(=O)(=O)C(F)(F)F", "melting point": "191 to 193"}
{"smiles": "CON(C)S(=O)(=O)c1ccccc1N", "melting point": 50}
{"smiles": "O=C(O)c1cnn2c(C(F)(F)F)cc(-c3cccc(C(F)(F)F)c3)nc12", "melting point": 212}
{"smiles": "COCCOCN1C(C)=C(C(=O)O)[C@@H](c2cccc([N+](=O)[O-])c2)C(C(=O)OC)=C1C", "melting point": 124}
{"smiles": "CCn1c(=O)c2c(ncn2CCCCC(O)CO)n(CC)c1=O", "note": "(centres undefined)", "melting point": "77 to 78"}
{"smiles": "Cc1nc2c(N)nc3ccccc3c2n1OC(C)C", "melting point": 243}
{"smiles": "CSc1sc(NC(=O)OC(C)(C)C)c(NC(=O)OC(C)(C)C)c1C#N", "melting point": "156 to 157"}
{"smiles": "C=CCOc1ccc(C(=O)C=Cc2cc(OC)c(C)c(OC)c2)cc1", "melting point": "143 to 144"}
{"smiles": "NC(=O)c1sc2nc(N3CCC(NCC(O)c4cc5ccccc5cn4)CC3)cc(C(F)(F)F)c2c1N", "note": "(centres undefined)", "melting point": "169 to 172"}
{"smiles": "CC1(C)COS(=O)Oc2ccc(OS(C)(=O)=O)cc21", "note": "(centres undefined)", "melting point": "96 to 98"}
{"smiles": "CC(=O)c1cc(Cl)sc1SCc1ccccc1", "melting point": "86 to 88"}
{"smiles": "N#Cc1ccc(N2CCC(=O)CC2)nc1", "melting point": "171 to 173"}
{"smiles": "O=C(c1ccccc1F)C1CCN(CCc2c[nH]c3ccccc23)CC1", "melting point": "106 to 108"}
{"smiles": "Cc1cc(NC(=O)C2=C(O)c3ccccc3N(c3ccccc3)C2)no1", "melting point": "148 to 150"}
{"smiles": "CC(C)(F)c1cnn2c(-c3ccc(F)c(-c4c(F)cccc4C#N)c3)cnc2n1", "melting point": "187 to 188"}
{"smiles": "CN1[C@H]2CC[C@@H]1[C@H](c1nc(-c3ccncc3)no1)[C@@H](c1ccc3c(c1)OCO3)C2", "melting point": "110 to 112"}
{"smiles": "CCOC(=O)C(=O)CCc1ccccc1", "melting point": "126 to 127"}
{"smiles": "CCCCS(=O)(=O)Nc1cccc(OCc2ccc3ccccc3n2)c1", "melting point": "105 to 106"}
{"smiles": "COc1ccc(C(C)(O)c2cccc(OCc3nc(-c4ccccc4)oc3C)c2)c(OCCOC(C)=O)c1", "note": "(centres undefined)", "melting point": "144 to 145"}
{"smiles": "O=S1(=O)c2cccc3c(Cl)cc(Cl)c(c23)N1CCCN1CC=C(c2ccccc2)CC1", "melting point": 126}
{"smiles": "Clc1cccc(-c2n[nH]cc2-c2ccnc(NCCc3ccccc3)c2)c1", "melting point": "185 to 186"}
{"smiles": "O=S1NC(Cc2cc3cc(F)ccc3o2)=NO1", "note": "(centres undefined)", "melting point": "144 to 145"}
{"smiles": "c1ccc(NC(Nc2ccccc2)Nc2ccccc2)cc1", "melting point": "138 to 139"}
{"smiles": "CCOc1c(C#N)c(C#N)c(OCC)c2ccccc12", "melting point": 167}
{"smiles": "O=C(CCC(=O)N1CCCCC1)c1ccc(F)cc1", "melting point": "70 to 71"}
{"smiles": "CC(Cn1cnnn1)n1nnc2cc3c(=O)n(C)nnc3cc2c1=O", "note": "(centres undefined)", "melting point": "228 to 230"}
{"smiles": "CCOc1ccc([N+](=O)[O-])c(NC23CC4CC(CC(C4)C2)C3)c1", "melting point": 147}
{"smiles": "Cc1cc(C)c(Nc2nc(C)ncc2S(=O)(=O)c2ccc(-n3ccnc3)cc2)c(C)c1", "melting point": "230 to 232"}
{"smiles": "CC(C)(C)CC(C)(C)NC(=O)C1=C(c2ccccc2)C(c2ccccc2)OC1=O", "note": "(centres undefined)", "melting point": "110 to 111"}
{"smiles": "Cc1cc2cc(C#CCO)ccc2o1", "melting point": 102}
{"smiles": "COc1cc2c(cc1OC)CN(CCCOc1ccc(NC(=O)c3cccc4c(=O)c5ccccc5sc34)cc1)CC2", "melting point": 210}
{"smiles": "O=c1[nH]nc2n1-c1ccc(Cl)cc1C(c1ccccc1Cl)=CC2", "melting point": "250 to 251"}
{"smiles": "CCN1CCNC(=O)c2ccc(Nc3ncc(Cl)c(Nc4ccccc4-c4nccn4C)n3)cc21", "melting point": "143 to 151"}
{"smiles": "COc1ccc(-c2sc3c(c2C)c(=O)c(CO)cn3Cc2ccccc2F)cc1", "melting point": "159 to 160"}
{"smiles": "O=C(NCCOCc1cccc(Cl)c1)c1c(Cl)cccc1Cl", "melting point": "70 to 72"}
{"smiles": "CC(c1cc(C(C)(C)C)c(O)c(C(C)(C)C)c1)N(O)C(N)=O", "note": "(centres undefined)", "melting point": "162 to 164"}
{"smiles": "CNC(=NCCSCc1[nH]cnc1C)NS(=O)(=O)c1ccccc1", "melting point": "156 to 158"}
{"smiles": "CCOCc1nc2c(N)nc3ccccc3c2n1CC1(NC(=O)OCC)CCCCC1", "melting point": "95 to 100"}
{"smiles": "O=c1ccn(-c2ccc(Cl)cc2)nc1-c1ccnn1-c1ccccc1", "melting point": "219 to 220"}
{"smiles": "CCCCCCCCCCCCCCCCCNC(=O)O[C@@H]1CCCO[C@H]1CO", "note": "(relative stereo)", "melting point": "84 to 86"}
{"smiles": "CCOC(=O)C(C)Oc1ccc(Oc2nc3ccc(Cl)cc3cc2Cl)cc1", "note": "(centres undefined)", "melting point": 70}
{"smiles": "CCC(C)COc1ccc(N=Nc2ccc(F)cc2)cc1", "note": "(centres undefined)", "melting point": "64.3 to 65"}
{"smiles": "COC(=O)CC1Oc2ccccc2Oc2ccccc21", "note": "(centres undefined)", "melting point": "72 to 74"}
{"smiles": "O=C(NCCCc1c[nH]c(-c2ccc(F)cc2)c1-c1ccncc1)C(F)(F)F", "melting point": "229 to 230"}
{"smiles": "C=C(C)CN1C(=O)c2cscc2Nc2ccccc21", "melting point": "161 to 163"}
{"smiles": "CN(CC(=O)c1ccc(Br)cc1)C(=O)OC(C)(C)C", "melting point": "87 to 90"}
{"smiles": "Cc1c(Cc2ccc(C(C)C)cc2)c2c(c(C)c1NC(=O)CC(C)(C)C)CC(C)(CO)O2", "note": "(centres undefined)", "melting point": "186 to 187"}
{"smiles": "Cc1c2c(cn1C)CN=C(c1ccccc1Cl)c1cc(Cl)ccc1-2", "melting point": "200 to 202"}
{"smiles": "CCOC(=O)c1nc(-c2ccc(Cl)cc2F)nc(N)c1Cl", "melting point": "131 to 132"}
{"smiles": "CCCC(=O)N(Cc1ccc(Cl)cc1Cl)c1c(NC(C)(C)CC)c(=O)c1=O", "melting point": "112 to 117"}
{"smiles": "Cc1ccccc1-n1ccc2c(Cl)nc3c(C)cccc3c21", "melting point": "135 to 137"}
